This test concerns the target PDE1A (Homo sapiens, UniProt P54750). Nature of the test: PDE1A dose response, Cyclic Nucleotide Phosphodiesterase Assay Kit from Biomol (colorimetric). To be noted: purified PDE1A enzyme, 100 μM cAMP. Type of test: biochemical. The essentials: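 Purified PDE1A hydrolysed 100 μM cAMP with 5′-nucleotidase in Tris 20 mM pH 7.4 with calmodulin, Ca2+, Mg2+, 45 min at 37° C. Released phosphate read by malachite-green absorbance at 615 nm. Duplicate 8-point 1/3 dilutions from 20 μM, 1% DMSO; 10 μM vardenafil defined 100% inhibition.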
As usually defined, the IC50 is the concentration needed to halve the response being measured. High values mean weaker potency in that assay, low ones greater potency in that assay. `Cc1nn(C(C)(C)C)c2nc(C3CN(C(=O)NC4CCCCC4)C3)[nH]c(=O)c12` [Example 15, 3-(1-tert-butyl-3-methyl-4-oxo-4,5-dihydro-1H-pyrazolo[3,4-d]pyrimidin-6-yl)-N-cyclohexylazetidine-1-carboxamide] came in with a half-maximal inhibitory concentration (IC50) of 1 to 100 nM. Turning to `Cc1nn(C2CCCCC2)c2nc(C3CN(C(=O)N[C@@H](C)c4ccccc4)C3)[nH]c(=O)c12` [Example 42, (S)-3-(1-cyclohexyl-3-methyl-4-oxo-4,5-dihydro-1H-pyrazolo[3,4-d]pyrimidin-6-yl)-N-(1-phenylethyl)azetidine-1-carboxamide], the concentration for half-maximal inhibition (IC50) was in the range of 1 to 100 nM. Then `O=C(c1ccc2c(c1)OCO2)N1CCCC(c2nc3c(cnn3C3CCCCC3)c(=O)[nH]2)C1` (centres unmarked) [Example 76, 6-(1-(benzo[d][1,3]dioxole-5-carbonyl)piperidin-3-yl)-1-cyclohexyl-1H-pyrazolo[3,4-d]pyrimidin-4(5H)-one], with 101 to 500 nM. Then `CC(=O)Nc1ccc(N2CC(c3nc4c(cnn4C4CCCCC4)c(=O)[nH]3)C2)cc1` [Example 167, N-(4-(3-(1-cyclohexyl-4-oxo-4,5-dihydro-1H-pyrazolo[3,4-d]pyrimidin-6-yl)azetidin-1-yl)phenyl)acetamide], with 101 to 500 nM. The molecule `N#Cc1ccccc1N1CC(c2nc3c(cnn3C3CCCCC3)c(=O)[nH]2)C1` [Example 150, 2-(3-(1-cyclohexyl-4-oxo-4,5-dihydro-1H-pyrazolo[3,4-d]pyrimidin-6-yl)azetidin-1-yl)benzonitrile] returned a half-maximal inhibitory concentration (IC50) of 101 to 500 nM. Then `O=C(NCCCN1CCOCC1)N1CC(c2nc3c(cnn3C3CCCCC3)c(=O)[nH]2)C1` [Example 88, 3-(1-cyclohexyl-4-oxo-4,5-dihydro-1H-pyrazolo[3,4-d]pyrimidin-6-yl)-N-(3-morpholinopropyl)azetidine-1-carboxamide], with 501 to 1000 nM. Then `O=C(NC1CCCC1)N1CC(c2nc3c(cnn3C3CCCCC3)c(=O)[nH]2)C1` [Example 32, 3-(1-cyclohexyl-4-oxo-4,5-dihydro-1H-pyrazolo[3,4-d]pyrimidin-6-yl)-N-cyclopentylazetidine-1-carboxamide], with 1 to 100 nM; and `O=c1[nH]c(C2CN(c3ncc(-c4ccccc4)o3)C2)nc2c1cnn2C1CCCCC1` [Example 136, 1-cyclohexyl-6-(1-(5-phenyloxazol-2-yl)azetidin-3-yl)-1H-pyrazolo[3,4-d]pyrimidin-4(5H)-one], with 101 to 500 nM. Molecule `CN(C)c1ccc(C(=O)N2CCCC(c3nc4c(cnn4C4CCCCC4)c(=O)[nH]3)C2)cc1` (centres unmarked) [Example 60, 1-cyclohexyl-6-(1-(4-(dimethylamino)benzoyl)piperidin-3-yl)-1H-pyrazolo[3,4-d]pyrimidin-4(5H)-one] showed a concentration for half-maximal inhibition (IC50) of 101 to 500 nM.

`COc1ccc(NC(=O)N2CC(c3nc4c(cnn4C4CCCCC4)c(=O)[nH]3)C2)cc1` [Example 13, 3-(1-cyclohexyl-4-oxo-4,5-dihydro-1H-pyrazolo[3,4-d]pyrimidin-6-yl)-N-(4-methoxyphenyl)azetidine-1-carboxamide]: the IC50 fell in the range of 1 to 100 nM. As for `O=c1[nH]c(C2CN(c3nc4ccccc4s3)C2)nc2c1cnn2C1CCCCC1` [Example 129, 6-(1-(benzo[d]thiazol-2-yl)azetidin-3-yl)-1-cyclohexyl-1H-pyrazolo[3,4-d]pyrimidin-4(5H)-one], the figure is 101 to 500 nM. The molecule `COc1ccccc1C(=O)N1CCCC(c2nc3c(c(C)nn3C3CCCCC3)c(=O)[nH]2)C1` (centres unmarked) [Example 57, 1-cyclohexyl-6-(1-(2-methoxybenzoyl)piperidin-3-yl)-3-methyl-1H-pyrazolo[3,4-d]pyrimidin-4(5H)-one] showed an IC50 of 101 to 500 nM. `O=c1[nH]c(C2CN(c3ccccc3)C2)nc2c1cnn2C1CCCCC1` [Example 168, 1-cyclohexyl-6-(1-phenylazetidin-3-yl)-1H-pyrazolo[3,4-d]pyrimidin-4(5H)-one] showed a half-maximal inhibitory concentration (IC50) of 101 to 500 nM. With `Cc1nn(C2CCCCC2)c2nc(C3CN(C(=O)c4ccccc4)C3)[nH]c(=O)c12` [Example 72, 6-(1-benzoylazetidin-3-yl)-1-cyclohexyl-3-methyl-1H-pyrazolo[3,4-d]pyrimidin-4(5H)-one], the IC50 was 101 to 500 nM.

Values taken from patent publication US20090137549A1, “Novel compounds useful for the treatment of degenerative & inflamatory diseases” (priority 2006, published 2009).
